The source of these data is patent publication US11845774B2, “Sterol derivatives and preparation method and uses thereof” (BEIJING PEKING UNIVERSITY WBL BIOTECH CO., LTD., priority 2011, dated 2023).

The target of assay [1] is T1, HMG-CoA reductase (rat liver microsomes) (Rattus norvegicus, UniProt P51639).
T1 construct: taking out liver of male rat, washing with KESD buffer solution; from tissue; host or cells: liver of male rat (microsomal fraction, glycerol/37 °C treatment, 35-50% ammonium sulfate fraction)
T1 sequence (P51639 1-887): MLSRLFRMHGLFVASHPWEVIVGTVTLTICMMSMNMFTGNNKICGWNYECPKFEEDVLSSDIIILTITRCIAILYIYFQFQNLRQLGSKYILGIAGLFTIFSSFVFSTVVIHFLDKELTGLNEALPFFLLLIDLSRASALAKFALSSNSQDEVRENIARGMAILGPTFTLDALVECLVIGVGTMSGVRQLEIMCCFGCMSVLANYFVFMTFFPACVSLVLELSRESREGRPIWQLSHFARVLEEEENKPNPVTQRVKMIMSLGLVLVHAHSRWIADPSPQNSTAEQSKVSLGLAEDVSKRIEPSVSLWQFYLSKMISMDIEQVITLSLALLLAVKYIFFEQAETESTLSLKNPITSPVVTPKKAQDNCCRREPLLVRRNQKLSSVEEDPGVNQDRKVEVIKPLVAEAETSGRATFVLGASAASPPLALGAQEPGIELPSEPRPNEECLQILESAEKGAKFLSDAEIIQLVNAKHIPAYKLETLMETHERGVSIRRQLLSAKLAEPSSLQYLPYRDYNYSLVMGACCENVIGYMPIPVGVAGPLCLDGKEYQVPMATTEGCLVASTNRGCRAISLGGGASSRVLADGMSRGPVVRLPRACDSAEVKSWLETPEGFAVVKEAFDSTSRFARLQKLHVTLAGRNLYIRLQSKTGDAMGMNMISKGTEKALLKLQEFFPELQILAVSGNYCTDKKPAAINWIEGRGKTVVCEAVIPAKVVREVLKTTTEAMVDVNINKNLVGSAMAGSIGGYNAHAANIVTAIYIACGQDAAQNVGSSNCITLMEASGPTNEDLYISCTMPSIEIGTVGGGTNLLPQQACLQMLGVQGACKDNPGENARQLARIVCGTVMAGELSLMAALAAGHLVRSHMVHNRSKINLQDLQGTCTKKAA
In words: Test of activity of inhibiting HMG-CoA reductase (rate of decline of OD340). The class given is biochemical. To be noted: final concentration in system 80 μg/mL. On the procedure: Rat liver microsomes (HMG-CoA reductase), could be commercially available or prepared by the following preparation method: taking out liver of male rat, washing with KESD buffer solution, centrifuging under 1200 g for 15 minutes, collecting supernatant, then centrifuging under 105,000 g twice, 90 minutes for each time, and collecting centrifugation deposit. The centrifugation deposit was added with 8.3% of glycerol, heated with 37° C. bath for 1 hour. The crude product of rat liver microsomes was purified with saturated ammonium sulfate, and 35-50% of purified fraction was collected. The purified fraction obtained could be stored in −80° C. refrigerator.
Compound of Formula II was dissolved in 75% ethanol solution, with initial concentration of 8.0 mg/mL, and diluted in gradient manner, to reach 4.0 mg/mL, 2.0 mg/mL, 1.0 mg/mL; lovastatin was used as positive control, dissolved with 75% ethanol solution to reach concentration of 2.0 mg/mL; in the test system, total volume was 250 μL, concentrations of ingredients were separately: potassium chloride 200 mM, potassium dihydrogen phosphate 160 mM, ethylenediamine tetraacetic acid 4 mM, dithiothreitol 10 mM, […] and 3-hydroxy-3-methylglutary coenzyme A as two substrates separately had concentrations of: 200 μM and 50 μM, pH6.8, 30 μL of enzyme was added, 4 test groups were separately added with 10 μL of new compound solutions with different concentrations, the positive control group was added with 10 μL of lovastatin solution, the blank control group was added with 10 μL of 75% ethanol solution, and dynamitic changes of OD340 were detected with Versamax ELISA at 37° C. condition. The rate of decline of OD340 (expressed in slope value) as detected within 5 minutes was used to evaluate the activity of HMG-CoA reductase, and then to evaluate the activity of enzyme inhibitor and the results were shown in Table 2.

The target in assay [2] is T2, Porcine pancreatic lipase (Sus scrofa, UniProt P00591).
T2 construct: purchased Sigma
T2 sequence (P00591 1-450): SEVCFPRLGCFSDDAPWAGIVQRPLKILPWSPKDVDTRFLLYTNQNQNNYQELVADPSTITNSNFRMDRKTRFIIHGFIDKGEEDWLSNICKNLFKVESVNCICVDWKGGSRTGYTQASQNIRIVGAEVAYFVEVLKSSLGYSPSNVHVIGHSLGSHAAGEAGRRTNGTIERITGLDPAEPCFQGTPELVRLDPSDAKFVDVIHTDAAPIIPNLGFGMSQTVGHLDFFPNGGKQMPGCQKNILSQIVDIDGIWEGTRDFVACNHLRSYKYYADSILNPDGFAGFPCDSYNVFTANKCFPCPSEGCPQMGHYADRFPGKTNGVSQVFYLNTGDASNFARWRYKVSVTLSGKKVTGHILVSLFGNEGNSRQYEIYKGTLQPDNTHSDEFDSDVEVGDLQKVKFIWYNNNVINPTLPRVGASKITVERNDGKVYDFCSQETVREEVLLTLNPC
In words: Test of activity of inhibiting lipase (copper oleate colorimetry, olive oil substrate). The class given is biochemical, pig. The following applies: final concentration of inhibitor in the system 1.85 μg/mL. The protocol:
2.1 Preparation of light absorbance working curve for fatty acid: a series of oleic acid-toluene solutions with different concentrations (0-3.5 mmol/L, separately being 0, 0.225, 0.45, 0.675, 0.9, 1.125, 1.35, 1.8, 2.25, 2.7, and 3.5 mmol/L), 4 mL of each was taken and placed in conical flask, added with 1 mL of color developing agent, stirred with magnetic force for 3 minutes, oleic acid molecules and copper ions formed a green complex compound, after centrifugation, organic phase of upper layer was taken and measured at 714 nm to determine light absorbance.
2.2 Enzyme solution was 0.5 mg/mL pancreatic lipase solution; buffer solution was 0.07M NaH2PO4—K2HPO4 phosphate buffer solution (pH 7.0); color developing agent was 5% copper acetate solution, which was regulated with pyridine to have pH 6.1.
3 mL of 0.07M phosphate buffer solution and 1 mL of olive oil were pre-heated at a constant temperature of 37° C. for 5 minutes in water bath under agitation with a magnetic stirrer, added with 1.3 mL of enzyme solution (negative control was that without enzyme inhibitor; positive control is that added with 100 μL of 0.1 mg/mL orlistat solution; […]), stirred with magnetic force for 10 minutes, immediately added with 8 mL of toluene, stirred continuously for 2 minutes, the reaction was terminated, the generated oleic acid was extracted. The solutions were transferred to centrifuge tube, centrifuged under 4000 rpm for 10 minutes, and the organic phase and water phase were layered and clarified. 4 mL of the upper layer organic phase was taken and placed in a small conical flask, added with 1 mL of color developing agent, stirred with magnetic stirrer for 3 minutes, the generated oleic acid reacted with copper ions to form green complex compound. After centrifugation under 4000 rpm for 10 minutes, the upper layer of toluene solution containing copper oleate was taken, and measured with a spectrophotometer at 714 nm to determine its light absorbance. A blank solution without lipase was prepared as control by the same method, and concentration of fatty acid could be determined by referring to light absorbance working curve of oleic acid.
Enzyme activity unit of lipase was defined as follows: an enzyme amount to release 1 μmol fatty acid under certain condition was defined as 1 unit of lipase activity (U).
The following formula was used to calculate enzyme activity: X=(cV)/(tV′)
wherein: X represents enzyme activity of lipase, U/mL; c represents concentration of fatty acid, […]; V represents volume of fatty acid solution, mL; V′ represents amount of enzyme solution, mL; t represents action time, minute. Inhibition rate=[(enzyme activity of lipase−enzyme activity of lipase after inhibition)/enzyme activity of lipase]×100%

Regarding `CC[C@H](C)C(=O)O[C@H]1C[C@@H](C)C=C2C=C[C@H](C)[C@H](CC[C@@H]3C[C@@H](O)CC(=O)O3)[C@H]21` [Lovastatin, lovastatin, reference compound], in assay [1], the Inhibition rate is reported as 54.4%. Besides, the “Slope (rate of decline of OD340)” value in assay [1] (blank control slope 16.0) was 7.3.

In turn, `CCCCCCCCCCC[C@@H](C[C@@H]1OC(=O)[C@H]1CCCCCC)OC(=O)[C@H](CC(C)C)NC=O` [Orlistat, orlistat, reference compound] gave an Absorbance in assay [2] (714 nm, blank control 0.6680) of 0.2042. This molecule registered an Inhibition rate in assay [2] of 69.84%. The Enzyme activity in assay [2] (blank control 1.69) is listed as 0.50 U/mL. In assay [2] (blank control 2.75), the “Concentration of generated oleic acid” value is given as 0.81 mM.
